Experimental data reported in US20100093872A1, “STABLE AQUEOUS FORMULATIONS OF WATER INSOLUBLE OR POORLY SOLUBLE DRUGS” (Erimos Pharmaceuticals LLC, priority 2008, published 2010).
Values after ≈ are worked out from the molar mass of the structure shown. Read-outs that look alike come from different tables or passages of the source.

Key:
physchem [1] = format: physicochemical; conditions: water
Protocol: Terameprocol is an extremely difficult drug to formulate because it is effectively insoluble in all of the commonly used aqueous media used for intravenous delivery of pharmaceuticals. Terameprocol's solubility in an aqueous solvent, at all pH's in water, 0.9% saline and 5% dextrose is <0.01 mg/mL, a level below the limit of quantitation of the RP-HPLC assay used for evaluation. In order to develop a formulation suitable for clinical use, it is preferred that the solubility of the drug be equal to or exceed 5 mg/mL. At concentrations below this limit, large volumes of solvent are required to deliver the drug. The extremely low solubility of terameprocol presents major formulation challenges using conventional formulation techniques such as the use of organic solvents, surfactants or extremes of pH. These conventional formulation approaches would require the administration of large concentrations of co-solvents and may render the solution viscous and/or difficult to handle during reconstitution in the bedside or pharmacy. […] The use of conventional approaches have met with limited success when formulating terameprocol for intravenous parenteral administration.

[2] = Stability of terameprocol/HPβCD 5 L formulation with NaCl and after autoclaving (precipitation); format: physicochemical
Protocol: The 5 L experiments were conducted to (a) explore the acceptable temperature range indicated in ‘b’ above required for forming terameprocol cyclodextrin complexes, (b) evaluate the stability of terameprocol/HPβCD upon autoclaving: 15 minutes vs. 30 minutes at 121° C., (c) evaluate the compatibility of terameprocol/HPβCD with 0.5% (w/v) sodium chloride (NaCl), and (d) develop a process which could be scaled to the next engineering size of 60 L. The acceptable temperature required for complexation of terameprocol and cyclodextrin (HPβCD) was determined to be above the melting point of terameprocol (>104° C.). The resulting terameprocol/HPβCD formulation was stable for 4 weeks at room temperature (RT), 4 weeks under refrigerated conditions, and 2 weeks under accelerated conditions (40° C.) for all sample types evaluated: non-autoclaved, autoclaved up to 30 minutes, and upon spiking with NaCl as shown in Table 2. The compatibility of terameprocol/HPβCD with NaCl supports flushing of the IV lines with 0.9% Saline to keep lines patent if required.

physchem [3] = format: physicochemical; conditions: organic solvent or mixture, thermodynamic from solid
Protocol: The solubility of terameprocol was tested in various solvents and dispersed systems. An excess of the solid API (20-50 mg) was shaken with 1 mL of a given solvent overnight (˜16 hr) at room temperature on a gyratory shaker at maximum speed. The samples were filtered through 0.45 μm PVDF filter. The filtrates were diluted to the working linear range (0.06-0.1 mg/mL) of the UV-Vis method appropriately in acetonitrile and analyzed for terameprocol concentration using a UV-Vis spectrophotometer. The equation of the standard curve was y=16.70x+0.016 with a R^2=0.999 monitored at 281 nm.
Solubility in PEG 300 increased with increasing temperature with the value being greater than 600 mg/mL at 95° C.

[4] = Accelerated stability of 60 L lot terameprocol/HPβCD samples; format: physicochemical; conditions: 40° C/75% RH for 1 month; 60 L lots; no pH adjustment with/without homogenization, or pH 7 without homogenizer, with/without autoclaving
Protocol: The 5 L terameprocol formulation process was scaled up to 60 L lots. The 60 L lots were conducted to (a) evaluate the criticality of using an homogenizer to promote complexation of the terameprocol and HPβCD (b) evaluate the stability of the terameprocol/HPβCD complex upon pH adjustment after compounding using NaOH and/or HCl (c) investigate the stability after autoclaving up to 30 minutes at 121° C. of the non pH adjusted, pH adjusted, homogenized, and non-homogenized terameprocol samples (d) optimize the 5 L formulation process to 60 L in order to support a clinical scale-up to 373 L.
It was determined that with proper tank design using an aggressive mixer introduced enough energy into the system where the homogenizer may not be critical for complexation. Samples of terameprocol that had 1) no pH adjustment with and without homogenization and 2) pH adjusted to 7 with no homogenizer and with and without autoclaving were stable at the accelerated condition of 40° C/75% RH for 1 month.

[5] = Achievable terameprocol concentration in HPβCD formulations without co-solvent (bench-scale development); format: physicochemical
Protocol: The inventors of the present invention have made the surprising discovery that terameprocol can be formulated in cyclodextrins without the need for elaborate chemical solvent matrices and that lead to increases in the solubility of water insoluble drugs through the formation of a stable inclusion complex. […] Details of this will be discussed later.
Bench-top (10 mL) to 5 L scale development studies were performed to remove PEG 300 from terameprocol/HPβCD formulations. Conclusions from the bench scale experiments were (a) 7 mg/mL is the maximum achievable terameprocol concentration in an IV formulation containing 30-40% HPβCD (b) incorporating the drug at high temperatures (80° C. or greater) is an important step in forming the inclusion complex (c) high mechanical energy must be provided when cooling the complex to approximately ambient condition once formed. There were differences in equipment used at the 10 mL vs. 5 L scale. The 10 mL scale utilized glass beakers with a sonicator for incorporation, while the 5 L experiments were conducted with a 10 L stainless steel jacketed vessel equipped with a recirculating heating bath, overhead air powered blade mixer and an in-line homogenizer.

[6] = Determination of optimum temperature requirement (microscopic images of in-process samples); format: physicochemical; conditions: for crystals in in-process sample (microscopic image): HPβCD solution, homogenized
Protocol: A solution of HPβCD was prepared in a 5 L jacketed vessel and heated to aid in dissolution. Terameprocol was added slowly to the HPβCD solution. The in-line homogenizer was utilized and the temperature was maintained at 40° C. for 2 hours. […] The temperature was increased to 60° C. with homogenization and held for one hour. […] The temperature was increased to 80° C. under homogenization for 2 hours. It was noted that due to heating in a closed vessel, the system was slightly pressurized due to the increase in operating temperature. […] The experiment was repeated but the system was taken to temperature above the melting point (>104° C.) with homogenization in the same closed vessel. The vessel was then cooled and samples taken. […] It was concluded the optimum temperature requirement was that above the drug's melting point.

[7] = Chemical stability of terameprocol under stress (base, acid, heat, light, oxidizer, water); format: physicochemical; conditions: subjected to base, oxidizer, and water
Source text: Terameprocol is a small molecule with a molecular weight of 358.5 g/mol; it is hydrophobic, and non-ionic.

[8] = cited from earlier work
[9] = 0.5% w/v NaCl, autoclaved 15 min at 121° C.
[10] = 0.5% w/v NaCl, autoclaved 30 min at 121° C.
[11] = Unspiked, autoclaved 15 min at 121° C.
[12] = Unspiked, autoclaved 30 min at 121° C.

## COc1ccc(C[C@@H](C)[C@@H](C)Cc2ccc(OC)c(OC)c2)cc1OC [terameprocol, tetra-o-methyl nordihydroguaiaretic acid]
Physchem [1]
  solubility: < 0.01 mg/mL
[2]; [9]
  Precipitation 2-8° C. (4-weeks): No
  Precipitation 40° C. (2-weeks): No
  Precipitation RT (4-weeks): No
  Terameprocol: 6.03 mg/mL
[2]; [10]
  Precipitation 2-8° C. (4-weeks): No
  Precipitation 40° C. (2-weeks): No
  Precipitation RT (4-weeks): No
  Terameprocol: 5.77 mg/mL
[2]; 0.5% w/v NaCl, not autoclaved
  Precipitation 2-8° C. (4-weeks): No
  Precipitation 40° C. (2-weeks): No
  Precipitation RT (4-weeks): No
  Terameprocol: 5.89 mg/mL
[2]; [11]
  Precipitation 2-8° C. (4-weeks): No
  Precipitation 40° C. (2-weeks): No
  Precipitation RT (4-weeks): No
  Terameprocol: 5.76 mg/mL
[2]; [12]
  Precipitation 2-8° C. (4-weeks): No
  Precipitation 40° C. (2-weeks): No
  Precipitation RT (4-weeks): No
  Terameprocol: 5.97 mg/mL
[2]; Unspiked, not autoclaved
  Precipitation 2-8° C. (4-weeks): No
  Precipitation 40° C. (2-weeks): No
  Precipitation RT (4-weeks): No
  Terameprocol: 5.80 mg/mL
Physchem [3]; 25 °C, solubility in pharmaceutically relevant solvents
  solubility at 16 h: < 10 mg/mL
Physchem [3]; 40 °C
  solubility: 10.1 mg/mL (≈ 28.2 mM)
Physchem [3]; 80 °C
  solubility: > 400 mg/mL
Physchem [3]; 95 °C
  solubility: > 600 mg/mL
[4]
  formulation stability: stable
[5]; IV formulation containing 30-40% HPβCD, no PEG 300, bench scale
  maximum achievable terameprocol concentration: 7 mg/mL
[5]; all temperatures below the melting point, or precipitation
  concentration obtained on mixing with cyclodextrin in water without solvent: ≤ 7000 µg/mL
[6]; 40° C. for 2 hours (FIG. 6-A)
  crystals in in-process sample (microscopic image): numerous terameprocol crystals present
[6]; 60° C. for one hour (FIG. 6-B)
  crystals in in-process sample (microscopic image): presence of crystals was still evident
[6]; 80° C. for 2 hours (FIG. 6-C)
  crystals in in-process sample (microscopic image): significant reduction in crystal formation
[6]; processed above the melting point (>104° C.) with homogenization, immediately or after 4 weeks
  crystal formation: no crystal formation
[7]
  stability / degradation: does not degrade

## CC(O)COC[C@H]1O[C@@H]2O[C@H]3[C@H](O)[C@@H](O)[C@@H](O[C@H]4[C@H](O)[C@@H](O)[C@@H](O[C@H]5[C@H](O)[C@@H](O)[C@@H](O[C@H]6[C@H](O)[C@@H](O)[C@@H](O[C@H]7[C@H](O)[C@@H](O)[C@@H](O[C@H]8[C@H](O)[C@@H](O)[C@@H](O[C@H]1[C@H](O)[C@H]2O)O[C@@H]8COCC(C)O)O[C@@H]7COCC(C)O)O[C@@H]6COCC(C)O)O[C@@H]5COCC(C)O)O[C@@H]4COCC(C)O)O[C@@H]3COCC(C)O (stereo partly drawn) [HPβCD, hydroxypropyl beta-cyclodextrin]
[8]; 121° C. for 15 minutes
  stability during sterilization: stable
[8]; extreme acidic conditions of pH 2 at 60° C.
  hydrolysis: slight hydrolysis
[8]; pH 4, at 40° C. after 24 hrs
  hydrolysis: No significant hydrolysis
